Assay results: PMC7031696 (Cell chemical biology, 2019)

Columns and labels:
[1] = Solubility Assay (UV/vis spectroscopy, filter method); settings: 1 × PBS pH 7.4, 500 μM, UV/vis 280–360 nm minus 800 nm
[2] = system: synchronized Plasmodium falciparum parasites; experiment: Microscopical study of cell morphology after 8-h exposures (Figure S4); assay type: cell-based; settings: 3× the IC50^8h of the most sensitive life stage, 8-h intervals

| SMILES | Ratio fil./std. (absorbance filtrate/standard) [1] | digestive vacuole morphology [2] | most susceptible stage by cell morphology [2] |
| --- | --- | --- | --- |
| CC(C)(C)c1ccc2c(c1)CN(Cc1ccc(Cl)cc1)CO2 [MMV000442] | 0.74 | – | – |
| CN(C)Cc1ccc(-c2cc3c(-c4ccc(CN(C)C)cc4)ccnc3[nH]2)cc1.O=C(O)C(F)(F)F [MMV022224] | – | without displaying swollen vacuoles | early and late trophozoite stages |
